Results on 43 sequences are retold here after the supplement of paper PMC11208160.

The data set is described as follows: recombinant barcode read abundance after kanamycin selection (control-corrected) (log10(CPM+1)); higher = more efficient recombination; sequences stand for … in AGTGCAGAGAAAATCGGCCAGTTTTCTCTGCCTGCAGTCCGCATGCCGT…ATTTATGCAGCGGACTGCCTTTCTCCCAAAGTGATAAACCGGACAGTATCATGGACCGGTTTTCCCGGTAATCCGTATTTGCAAGGTTGGTTTCACT; site = the 11-nt target. In outline:
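In E. coli, a pooled library matched targets to IS621 bridge RNA target-binding loops and was introduced alongside a donor plasmid. Cells went onto chloramphenicol/ampicillin/kanamycin with 0.1 mM IPTG or onto chloramphenicol/ampicillin LB agar as control, in duplicate. Recombination efficiency, from recombinant-junction barcodes as counts per million, is averaged and control-corrected. It is reported as log10(CPM+1).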
As to “GGGAGCCCTTGGGTTCTAACCTGTTGCTGTG [GGGAGCCCTCA_LTGcore_CT_RTGcore_CA] (site GGGAGCCCTCA) (LTG core: CT, RTG core: CA)”, the “recombinant barcode read abundance (log10)” value is 0.589. As for “GGGAGCCTTTGGGTTCTAACCTGTTGCTGAG [GGGAGCCCTCA_LTGcore_TT_RTGcore_CT] (site GGGAGCCCTCA) (LTG core: TT, RTG core: CT)”, the “recombinant barcode read abundance (log10)” value was determined as 0.364. Turning to “GGGCGGAAATGGGTTCTAACCTGTTGCGGAG [GGGCGGACTCC_LTGcore_AA_RTGcore_CT] (site GGGCGGACTCC) (LTG core: AA, RTG core: CT)”, the “recombinant barcode read abundance (log10)” value is 0.131. As to “GGGCGGACATGGGTTCTAACCTGTTGCGGAG [GGGCGGACTCC_LTGcore_CA_RTGcore_CT] (site GGGCGGACTCC) (LTG core: CA, RTG core: CT)”, the “recombinant barcode read abundance (log10)” value worked out at 2.27. Take “GGGCGGACGTGGGTTCTAACCTGTTGCGGAG [GGGCGGACTCC_LTGcore_CG_RTGcore_CT] (site GGGCGGACTCC) (LTG core: CG, RTG core: CT)”: the “recombinant barcode read abundance (log10)” value was determined as 1.66.

Turning to “GGGCGGACTTGGGTTCTAACCTGTTGCGGGC [GGGCGGACTCC_LTGcore_CT_RTGcore_GC] (site GGGCGGACTCC) (LTG core: CT, RTG core: GC)”, the “recombinant barcode read abundance (log10)” value stood at 0.131. As for “GGGCGGACTTGGGTTCTAACCTGTTGCGGGT [GGGCGGACTCC_LTGcore_CT_RTGcore_AC] (site GGGCGGACTCC) (LTG core: CT, RTG core: AC)”, the figure is 0.273; as for “GGGCGGAGTTGGGTTCTAACCTGTTGCGGAG [GGGCGGACTCC_LTGcore_GT_RTGcore_CT] (site GGGCGGACTCC) (LTG core: GT, RTG core: CT)”, 0.389; as for “GGGCGGATCTGGGTTCTAACCTGTTGCGGGA [GGGCGGACTCC_LTGcore_TC_RTGcore_TC] (site GGGCGGACTCC) (LTG core: TC, RTG core: TC)”, 0.265. On to “GGGCGTGAGTGGGTTCTAACCTGTTGCCTAG [GGGCGTGCTAG_LTGcore_AG_RTGcore_CT] (site GGGCGTGCTAG) (LTG core: AG, RTG core: CT)”, for which the “recombinant barcode read abundance (log10)” value was found to be 0.154. As for “GGGCGTGATTGGGTTCTAACCTGTTGCCTAT [GGGCGTGCTAG_LTGcore_AT_RTGcore_AT] (site GGGCGTGCTAG) (LTG core: AT, RTG core: AT)”, the figure is 0.0806; as for “GGGCGTGCTTGGGTTCTAACCTGTTGCCTCA [GGGCGTGCTAG_LTGcore_CT_RTGcore_TG] (site GGGCGTGCTAG) (LTG core: CT, RTG core: TG)”, 1.06; as for “GGGCGTGCTTGGGTTCTAACCTGTTGCCTGG [GGGCGTGCTAG_LTGcore_CT_RTGcore_CC] (site GGGCGTGCTAG) (LTG core: CT, RTG core: CC)”, 0.301. “GGGCGTGCTTGGGTTCTAACCTGTTGCCTTG [GGGCGTGCTAG_LTGcore_CT_RTGcore_CA] (site GGGCGTGCTAG) (LTG core: CT, RTG core: CA)”: the “recombinant barcode read abundance (log10)” value is 0.0774. Consider “GGGCGTGGATGGGTTCTAACCTGTTGCCTTC [GGGCGTGCTAG_LTGcore_GA_RTGcore_GA] (site GGGCGTGCTAG) (LTG core: GA, RTG core: GA)”, for which the “recombinant barcode read abundance (log10)” value came to 0.0142. As to “GGGCGTGGCTGGGTTCTAACCTGTTGCCTGC [GGGCGTGCTAG_LTGcore_GC_RTGcore_GC] (site GGGCGTGCTAG) (LTG core: GC, RTG core: GC)”, the “recombinant barcode read abundance (log10)” value came out at 0. Consider “GGGCGTGGGTGGGTTCTAACCTGTTGCCTAG [GGGCGTGCTAG_LTGcore_GG_RTGcore_CT] (site GGGCGTGCTAG) (LTG core: GG, RTG core: CT)”, for which the “recombinant barcode read abundance (log10)” value was 0.188.

On to “GGGCGTGGTTGGGTTCTAACCTGTTGCCTAG [GGGCGTGCTAG_LTGcore_GT_RTGcore_CT] (site GGGCGTGCTAG) (LTG core: GT, RTG core: CT)”, for which the “recombinant barcode read abundance (log10)” value was 0.0791. In the case of “GGGCGTGTCTGGGTTCTAACCTGTTGCCTAG [GGGCGTGCTAG_LTGcore_TC_RTGcore_CT] (site GGGCGTGCTAG) (LTG core: TC, RTG core: CT)” it was 0.241. For “GGGCGTGTTTGGGTTCTAACCTGTTGCCTAA [GGGCGTGCTAG_LTGcore_TT_RTGcore_TT] (site GGGCGTGCTAG) (LTG core: TT, RTG core: TT)”, the “recombinant barcode read abundance (log10)” value was found to be 0.0616. Consider “GGTGCCCAATGGGTTCTAACCTGTTGCCGTT [GGTGCCCCTCG_LTGcore_AA_RTGcore_AA] (site GGTGCCCCTCG) (LTG core: AA, RTG core: AA)”, for which the “recombinant barcode read abundance (log10)” value is 0.404.

As to “GGTGCCCATTGGGTTCTAACCTGTTGCCGAT [GGTGCCCCTCG_LTGcore_AT_RTGcore_AT] (site GGTGCCCCTCG) (LTG core: AT, RTG core: AT)”, the “recombinant barcode read abundance (log10)” value amounted to 0.0482. Turning to “GGTGCCCCCTGGGTTCTAACCTGTTGCCGAG [GGTGCCCCTCG_LTGcore_CC_RTGcore_CT] (site GGTGCCCCTCG) (LTG core: CC, RTG core: CT)”, the “recombinant barcode read abundance (log10)” value is 0.15. Take “GGTGCCCCCTGGGTTCTAACCTGTTGCCGGG [GGTGCCCCTCG_LTGcore_CC_RTGcore_CC] (site GGTGCCCCTCG) (LTG core: CC, RTG core: CC)”: the “recombinant barcode read abundance (log10)” value is 0.387. As to “GGTGCCCCGTGGGTTCTAACCTGTTGCCGAG [GGTGCCCCTCG_LTGcore_CG_RTGcore_CT] (site GGTGCCCCTCG) (LTG core: CG, RTG core: CT)”, the “recombinant barcode read abundance (log10)” value worked out at 0.0559. As to “GGTGCCCCGTGGGTTCTAACCTGTTGCCGCG [GGTGCCCCTCG_LTGcore_CG_RTGcore_CG] (site GGTGCCCCTCG) (LTG core: CG, RTG core: CG)”, the “recombinant barcode read abundance (log10)” value came out at 0.329. As for “GGTGCCCCTTGGGTTCTAACCTGTTGCCGGA [GGTGCCCCTCG_LTGcore_CT_RTGcore_TC] (site GGTGCCCCTCG) (LTG core: CT, RTG core: TC)”, the “recombinant barcode read abundance (log10)” value stood at 0.0539. As for “GGTGCCCCTTGGGTTCTAACCTGTTGCCGGG [GGTGCCCCTCG_LTGcore_CT_RTGcore_CC] (site GGTGCCCCTCG) (LTG core: CT, RTG core: CC)”, the figure is 0.295.

For the sequence “GGTGCCCCTTGGGTTCTAACCTGTTGCCGTG [GGTGCCCCTCG_LTGcore_CT_RTGcore_CA] (site GGTGCCCCTCG) (LTG core: CT, RTG core: CA)”, the “recombinant barcode read abundance (log10)” value was found to be 0.126. Take “GGTGCCCGCTGGGTTCTAACCTGTTGCCGGC [GGTGCCCCTCG_LTGcore_GC_RTGcore_GC] (site GGTGCCCCTCG) (LTG core: GC, RTG core: GC)”: the “recombinant barcode read abundance (log10)” value came out at 0.148. In the case of “GGTGCCCTATGGGTTCTAACCTGTTGCCGTA [GGTGCCCCTCG_LTGcore_TA_RTGcore_TA] (site GGTGCCCCTCG) (LTG core: TA, RTG core: TA)”, the “recombinant barcode read abundance (log10)” value came out at 0.298. Take “GGTGCCCTGTGGGTTCTAACCTGTTGCCGAG [GGTGCCCCTCG_LTGcore_TG_RTGcore_CT] (site GGTGCCCCTCG) (LTG core: TG, RTG core: CT)”: the “recombinant barcode read abundance (log10)” value is 0.108. In the case of “GTCGCCCAATGGGTTCTAACCTGTTGCTATT [GTCGCCCCTTA_LTGcore_AA_RTGcore_AA] (site GTCGCCCCTTA) (LTG core: AA, RTG core: AA)”, the “recombinant barcode read abundance (log10)” value turned out to be 0.305.

Consider “GTCGCCCCGTGGGTTCTAACCTGTTGCTACG [GTCGCCCCTTA_LTGcore_CG_RTGcore_CG] (site GTCGCCCCTTA) (LTG core: CG, RTG core: CG)”, for which the “recombinant barcode read abundance (log10)” value worked out at 0.316. Regarding “GTCGCCCCTTGGGTTCTAACCTGTTGCTAAC [GTCGCCCCTTA_LTGcore_CT_RTGcore_GT] (site GTCGCCCCTTA) (LTG core: CT, RTG core: GT)”, the “recombinant barcode read abundance (log10)” value amounted to 0.102. For “GTCGCCCCTTGGGTTCTAACCTGTTGCTAAG [GTCGCCCCTTA_LTGcore_CT_RTGcore_CT] (site GTCGCCCCTTA) (LTG core: CT, RTG core: CT)”, the “recombinant barcode read abundance (log10)” value came to 0.234.

Regarding “GTCGCCCCTTGGGTTCTAACCTGTTGCTATA [GTCGCCCCTTA_LTGcore_CT_RTGcore_TA] (site GTCGCCCCTTA) (LTG core: CT, RTG core: TA)”, the “recombinant barcode read abundance (log10)” value was 0.0812.

On to “GTCGCCCCTTGGGTTCTAACCTGTTGCTATG [GTCGCCCCTTA_LTGcore_CT_RTGcore_CA] (site GTCGCCCCTTA) (LTG core: CT, RTG core: CA)”, for which the “recombinant barcode read abundance (log10)” value is 0.725. In the case of “GTCGCCCCTTGGGTTCTAACCTGTTGCTATT [GTCGCCCCTTA_LTGcore_CT_RTGcore_AA] (site GTCGCCCCTTA) (LTG core: CT, RTG core: AA)” it was 0.214. Turning to “GTCGCCCGGTGGGTTCTAACCTGTTGCTAAG [GTCGCCCCTTA_LTGcore_GG_RTGcore_CT] (site GTCGCCCCTTA) (LTG core: GG, RTG core: CT)”, the “recombinant barcode read abundance (log10)” value amounted to 0.0246. In the case of “GTCGCCCGTTGGGTTCTAACCTGTTGCTAAC [GTCGCCCCTTA_LTGcore_GT_RTGcore_GT] (site GTCGCCCCTTA) (LTG core: GT, RTG core: GT)”, the “recombinant barcode read abundance (log10)” value was determined as 0.146.

In the case of “GTCGCCCTATGGGTTCTAACCTGTTGCTATA [GTCGCCCCTTA_LTGcore_TA_RTGcore_TA] (site GTCGCCCCTTA) (LTG core: TA, RTG core: TA)”, the “recombinant barcode read abundance (log10)” value is 0.394.

Turning to “GTCGCCCTTTGGGTTCTAACCTGTTGCTAAA [GTCGCCCCTTA_LTGcore_TT_RTGcore_TT] (site GTCGCCCCTTA) (LTG core: TT, RTG core: TT)”, the “recombinant barcode read abundance (log10)” value was found to be 0.0974.
